Results taken from patent US11926613B2, “Kinase inhibitors for the treatment of central and peripheral nervous system disorders” (UNIVERSITY OF MIAMI, priority 2017, dated 2024).

Tests used:
[1] = test system: neurons from hippocampi of E18 rat embryos; experiment: Neurite growth length (% NTL) in cultured E18 rat hippocampal neurons, 9-point dose response, 48 hours; assay type: cell-based; settings: Rattus norvegicus, Neuron, 48 h; for activity at 0.078 µM: 78 nM; for activity at 0.156 µM: 156 nM; for activity at 0.312 µM: 312 nM; for activity at 0.625 µM: 625 nM
Method: PRE-COATING CULTURE PLATES: On the day before the experiment, 96-well plates were pre-coated by plating 50 μl of Poly-D-lysine solution (PDL, 0.5 mg/mL) in each well. The next morning, the plates were washed four or five times with HBSS or PBS (150 μl/rinse), then left in buffer until cell plating
PREPARING THE CELLS: A timed pregnant rat carrying E18 embryos was euthanized using an IACUC approved method. In a laminar flow hood, the embryos were removed and placed in a petri dish containing Hank's Balanced Salt Solution (HBSS) with 20 mM HEPES, pH 7.3. Pup brains were dissected (see Meberg et al., 2003) and hippocampi were collected in 15 mL a conical tube containing Hibernate E with SM1 (2% v/v).
Dissociation media was prepared by combining 4.5 mL of Hibernate E (without SM1) with 0.5 mL of trypsin and 100 μl of DNAse solution. The medium over the hippocampi was carefully removed and replaced with dissociation solution, then incubated at 37° C. for 15-20 minutes, occasionally swirling the tube.
Using flame polished cotton plugged Pasteur pipettes, the dissociation media was removed, and then 5 mL of Hibernate E containing SM1 were added. The tube was swirled to thoroughly wash the tissue. The tissue was allowed to settle to the bottom of the tube, and the rinse solution was carefully removed. This step was repeated 5 times to dilute out trypsin and DNAse and remove any debris from lysed cells.
The final rinse media was removed from the tube and 1 pipette-full (1-2 mL) of Hibernate E with SM1 was added. Using the flame-polished Pasteur pipette (pre-wetted with rinse media), the tube was triturated until all cells had dissociated and no visible chunks of tissue remained. Fewer than ten triturations were typically performed. The volume was adjusted to 8-12 mL using Hibernate E containing SM1, the well was mixed and cell concentration was determined.
PLATING: The cells were diluted in culture media (NbActiv4 Cell-culture media) to a final concentration of 10,000 cells/mL. The HBSS was aspirated from PDL coated plates, and 150 μL of cell solution was loaded in the middle 48 wells at 1500 cells per well. Water was loaded in the outer wells to decrease evaporation from edge wells. Cells were allowed to adhere for 2 hours in tissue culture incubator prior to treatment.
TREATMENT: Compounds were diluted to various concentrations to provide 9 dose response concentrations of 20 μM, 10 μM, 5, μM, 2.5 μM, 1.25 μM, 0.625 μM, 0.3125 μM, 0.15625 μM, and 0.078125 μM. The plates were cultured for 48 hours, exposed to the compound at the various dose response concentrations.
FIXING THE CULTURES: The culture medium was removed from the plates and immediately replaced with 100-200 μl of warm (37° C.) 4% paraformaldehyde (PFA) solution in phosphate-buffered saline (PBS). The cells were fixed for 15-20 minutes at room temperature, and then rinsed with PBS (200 μl/well×3).
STAINING AND IMAGING: The PBS was removed and replaced with 100 μl of blocking/permeabilization buffer (PBS, 0.2% fish gelatin, 0.03% Triton X-100, 0.02% NaN3), then incubated overnight at 4° C. To this was added 100 μl of primary antibody solution (mouse anti-Beta III tubulin in blocking buffer) and incubate overnight at 4° C. The wells were rinsed with PBS (200 μl×3), which was then removed and replaced with 100 μl of secondary antibody solution (Goat anti-mouse Alexa 488, 10 μg/ml Hoechst 33342, 0.2% fish gelatin, 0.02% azide, in PBS). The plate was shaken gently on a rotating shaker for 2 hours, then rinsed with PBS (200 μl×5).
The plate was imaged using a Cellomics ArrayScan VTI in 2 different channels for nuclear staining (Hoechst) and cell body/neurite staining (βIII-tubulin). Typically, nine fields per well were imaged with a 5× objective and automatically traced by the Neuronal Profiling Bioapplication. To get reproducible results, at least 200-300 valid neurons were measured per condition. […]

Primary Neurons = experiment: HCS neurite outgrowth assay (High Content Screening with Primary Neurons); assay type: cell-based; settings: Primary neuron

SMILES | activity at 0.078 µM [1] | activity at 0.156 µM [1] | activity at 0.312 µM [1] | activity at 0.625 µM [1] | activity at 1.25 µM [1] | activity at 2.5 µM [1] | activity at 5 µM [1] | activity at 10 µM [1] | activity at 20 µM [1] | EC50 (Primary Neurons)
O=C(N[C@@H]1CCCC[C@H]1NC(=O)c1ccc(C(=O)c2ccccc2)cc1)c1ccncc1 [Example A19, N-[(1R,2R)-2-(4-benzoylbenzamido)cyclohexyl]pyridine-4-carboxamide] | 90.1% | 93.7% | 68.7% | 75% | 75.7% | 78.5% | 79.4% | 87.4% | 91.2% | 2.24 µM
COc1ccc(OC)c(C(=O)c2ccc(C(=O)N[C@@H]3CCCC[C@H]3NC(=O)c3ccncc3)cc2)c1F [Example A21, N-[(1R,2R)-2-[4-(2-fluoro-3,6-dimethoxybenzoyl)benzamido]cyclohexyl] pyridine-4-carboxamide] | 84.7% | 83.3% | 79.8% | 81.8% | 86.8% | 91.5% | 102% | 107% | 108% | 2.92 µM
COc1ccc(O)c(C(=O)c2ccc(C(=O)N[C@@H]3CCCC[C@H]3NC(=O)c3ccncc3)cc2)c1F [Example A22] | 89.3% | 91.8% | 92.3% | 86.2% | 85.5% | 85.5% | 88.7% | 91.1% | 94.7% | 2.61 µM
O=C(N[C@@H]1CCCCC[C@H]1NC(=O)c1ccc(C(=O)c2ccccc2)cc1)c1ccncc1 [Example A23, N-[(1R,2R)-2-(4-benzoylbenzamido)cycloheptyl]pyridine-4-carboxamide] | 98.3% | 102% | 95.6% | 93.6% | 97% | 101% | 105% | 117% | 144% | 16.8 µM
COc1ccc(OC)c(C(=O)c2ccc(C(=O)N[C@@H]3CCCCC[C@H]3NC(=O)c3ccncc3)cc2)c1F [Example A24, N-[(1R,2R)-2-[4-(2-fluoro-3,6-dimethoxybenzoyl)benzamido]cycloheptyl] pyridine-4-carboxamide] | 96.3% | 96.8% | 93.4% | 96.9% | 91.8% | 101% | 114% | 131% | 169% | 16.1 µM
COc1ccc(O)c(C(=O)c2ccc(C(=O)N[C@@H]3CCCCC[C@H]3NC(=O)c3ccncc3)cc2)c1F [Example A25, N-[(1R,2R)-2-[4-(2-fluoro-6-hydroxy-3-methoxybenzoyl)benzamido]cycloheptyl] pyridine-4-carboxamide] | 98.9% | 97.5% | 110% | 111% | 120% | 122% | 134% | 146% | 163% | > 20 µM
COc1ccc(OC)c(C(=O)c2ccc(C(=O)NCCNC(=O)c3ccncc3)cc2)c1F [Example A26, 4-(2-fluoro-3,6-dimethoxybenzoyl)-N-{2-[(pyridin-4-yl)formamido]ethyl}benzamide] | 93.3% | 99.2% | 94.2% | 99.3% | 93.5% | 99.9% | 102% | 97.8% | 117% | > 20 µM
COc1ccc(O)c(C(=O)c2ccc(C(=O)NCCNC(=O)c3ccncc3)cc2)c1F [Example A27, 4-(2-fluoro-6-hydroxy-3-methoxybenzoyl)-N-{2-[(pyridin-4-yl)formamido]ethyl}benzamide] | 103% | 101% | 107% | 118% | 110% | 105% | 117% | 141% | 150% | 7.9 µM
COc1ccc(OC)c(C(=O)c2ccc(C(=O)O[C@@H]3CN(C)C[C@H]3NC(=O)c3ccncc3)cc2)c1F [Example A28, (3R,4R)-1-methyl-4-(pyridine-4-amido)pyrrolidin-3-yl 4-(2-fluoro-3,6-dimethoxybenzoyl)benzoate] | 97.8% | 113% | 103% | 83.7% | 103% | 118% | 133% | 137% | 139% | 4.72 µM
COc1ccc(OC)c(C(=O)c2ccc(C(=O)O[C@@H]3CCN(C)C[C@H]3NC(=O)c3ccncc3)cc2)c1F [Example A30, (3R,4R)-1-methyl-3-(pyridine-4-amido)piperidin-4-yl 4-(2-fluoro-3,6-dimethoxybenzoyl)benzoate] | 93.1% | 89.7% | 90.5% | 83.5% | 93.8% | 94.8% | 103% | 107% | 117% | 4.92 µM
COc1ccc(O)c(C(=O)c2ccc(C(=O)O[C@@H]3CCNC[C@H]3NC(=O)c3ccncc3)cc2)c1F [Example A31, (3R,4R)-3-(pyridine-4-amido)piperidin-4-yl 4-(2-fluoro-6-hydroxy-3-methoxybenzoyl)benzoate] | 122% | 120% | 118% | 115% | 136% | 140% | 151% | 142% | 137% | 1.15 µM
COc1ccc(OC)c(C(=O)c2ccc(C(=O)N[C@@H]3CN(C)C[C@H]3NC(=O)c3ccncc3)cc2)c1F [Example A33, N-[(3R,4R)-4-[4-(2-fluoro-3,6-dimethoxybenzoyl)benzamido]-1-methylpyrrolidin-3-yl]pyridine-4-carboxamide] | 108% | 106% | 99.3% | 107% | 115% | 129% | 142% | 159% | 207% | > 20 µM
COc1ccc(O)c(C(=O)c2ccc(C(=O)N[C@@H]3CNC[C@H]3NC(=O)c3ccc4c(c3)CC(=O)N4)cc2)c1F [Example A35, N-[(3R,4R)-4-[4-(2-fluoro-6-hydroxy-3-methoxybenzoyl)benzamido]pyrrolidin-3-yl]-2-oxo-2,3-dihydro-1H-indole-5-carboxamide] | 91.8% | 90.1% | 86.3% | 89.3% | 86.9% | 95% | 97.2% | 96.7% | 107% | 0.163 µM
